In US20060062797A1, “Novel materials and methods for the treatment of Alzheimer's disease patients” (The Research Foundation of State University of New York at …, priority 2004, published 2006):
Like-named read-outs stand apart in the source and are kept apart here. No end group written: not given here.

Key:
Aβ1-42 peptides = Aβ1-42 peptides (Homo sapiens, UniProt P05067); test: Electron microscopy of Aβ1-42 fibril formation in presence of inhibitor protein; assay type: biochemical; settings: equimolar ratio with 13C-labeled Aβ1-42 peptides; images over two weeks
Protocol: (§1) The amyloid fibril inhibitor protein (SEQ ID NO: 1) was incubated at an equimolar ratio with ^13C-labeled Aβ1-42 peptides. During this incubation, electron microscopic images were taken over the course of two weeks in accordance with Example 6. […] In fact, suspensions of Aβ1-42 protein (SEQ ID NO: 157) prepared at pH 7 were normally cloudy and formed gels during fibril growth.
Fibrillized amyloid samples were prepared by incubation of aqueous solutions at an Aβ1-42 peptide concentration of approximately 0.2 mM in 1.0 mM phosphate buffer at pH 7.0 with the pH adjusted as necessary by dropwise addition of dilute NaOH or acetic acid. 0.01% NaN3 was added to inhibit bacterial and fungal growth. The solution was incubated for approximately 10 days at a temperature of 24° C., with gentle rocking (200 rpm). Aliquots of incubated solutions were taken for electron microscopic observations after 3-5 days. Amyloid fibril formation was verified by electron microscopic images of negatively stained samples.
For electron microscopic analysis, a 5 μL sample of the amyloid fibril was placed on a carbon coated Foamvar 200 mesh copper grid. The sample was allowed to stand for 15-30 sec and any excess solution was removed by wicking away. The samples were negatively stained with 2% (w/v) uranyl acetate. The excess was wicked away and allowed to dry. […]

[1] = biological target: Aβ1-42 protein (SEQ ID NO: 157) (Homo sapiens, UniProt P05067); test: Appearance (clearing, gel formation) of Aβ1-42 suspensions at pH 7; assay type: biochemical
Protocol: as §1

GpA70-86 fibrils = biological target: T1, GpA70-86 fibrils (Homo sapiens, UniProt P02724); test: Glycophorin A transmembrane peptide (GpA70-86) fibril formation, solid-state NMR; assay type: biochemical; settings: for ability to inhibit amyloid fibril formation: "this assay system" of Example 2
T1 construct: comprising a 17 amino acid peptide corresponding to amino acid residues 70-86
Protocol: In the experiments below, magic-angle-spinning (MAS) NMR was performed at 360 and 600 MHz on Bruker Avance NMR spectrometers using 4 mm MAS rotors. The cross polarization contact time was 2 ms, two-pulse phase-modulated (TPPM) decoupling was used during the evolution and mixing periods and the dipolar-assisted rotational-resonance (DARR) mixing time was 1 sec. The proton field strength was set to the n =1 rotational resonance condition during the mixing period. Takegoshi et al., “^13C-^1H Dipolar-Driven ^13C-^13C Recoupling Without ^13C RF Irradiation In Nuclear Magnetic Resonance Of Rotating Solids” J. Chem. Phys. 118:2325-2341 (2003). DARR gives rise to off-diagonal cross peaks in the 2D NMR spectra if the ^13C . . . ^13C contacts are less than 6 A apart.
This experiment tested the idea that the large side chain amino acids on one sheet dovetail into the grooves formed by glycine on an opposing β-sheet using a mixture of two differently labeled pools of GpA70-86 peptide. A first set of peptides were labeled with a single ^13C isotope label at the backbone carbonyl carbon of Gly^79. A second set of peptides were ^13C -labeled at the Met^81 methyl side chain group. Computer modeling of the GpA70-86 peptide β-sandwich predicted an inter-β-sheet distance of 3-5 Å between the carbonyl ^13C of Gly^79 and the ^13CH3 of Met^81. The intra-sheet distance, however, was predicted to be ˜8-10 Å, and outside of the detection range of the NMR experiment used. Solid-state NMR techniques measured the intermolecular distance between Met^81 13C-labeled methyl side chains and the carbonyl ^13C-Gly^79 on adjacent β-sheets.
A truncated […], that mimics Aβ1-42 protein, was incubated with a glycine-rich transmembrane peptide (i.e., similar to APP). This target peptide corresponds to glycophorin A's transmembrane domain comprising a 17 amino acid peptide corresponding to amino acid residues 70-86. Glycophorin A, as a complete protein, is not known to form amyloid-like fibrils.

Aβ1-42 peptide [2] = biological target: T2, Aβ1-42 peptide (Homo sapiens, UniProt P05067); test: Fluorescence thioflavin T assay of amyloid fibrillization; assay type: biochemical
Protocol: Amyloid fibrillization was measured by the fluorescence thioflavin T assay. Levine III, H, Methods in Enzymology 309: 274-305 (1999). The Aβ1-42 peptide was dissolved and fibrillization was followed over the course of two weeks by monitoring thioflavin T fluorescence. Hou et al., J. Am. Chem. Soc. in press (2004).
The effect of the inhibitor plateaus after three days and shown to be 70%±5 % effective in preventing fibrillization.
Inhibition activities were also measured by fluorescence intensity over time at the following molar ratios of Aβ1-42 peptide to SEQ ID NO:1 (I1) 1:0; 1:1; 1:5; and 1:20. (FIG. 7). […] Soto, et al., Nature Medicine 4:822-826 (1998); and Soto et al., Biochem. Biophys. Res. Comm. 226:672-680 (1996).

[3] = biological target: Preformed amyloid fibrils comprising Aβ1-42 peptides (Homo sapiens, UniProt P05067); test: Depolymerization of preformed amyloid fibrils (fluorescence intensity); assay type: biochemical; settings: 1:20 molar ratio; for depolymerization of pre-existing Aβ1-42 fibrils (words): FIG. 8
Protocol: Preformed amyloid fibrils comprising Aβ1-42 peptides were incubated with and without SEQ ID NO: 1 (I1) a 1:20 molar ratio.

[4] = Neurotoxicity of inhibitor peptides alone in neuronal cell culture (cell count); assay type: cell-based; settings: neuronal cell culture, 48 Hour Incubation, read-out: % Survival
Protocol: (§2) An in vitro neuronal cell culture was grown to confluence and studied by cell count as a measure of neurotoxicity. Neurotoxicity was observed following one or two days of incubation with either polymerized Aβ1-42 peptide into amyloid fibrils (ag) or free (i.e., non-polymerized) Aβ1-42 peptides (sol). (See FIG. 9).

[5] = test system: in vitro neuronal cell culture; test: as above; assay type: cell-based; settings: peptide alone
Protocol: as §2

[6] = test system: Aβ1-42 peptide induced neurotoxicity in neuronal cell culture; test: Protection against Aβ1-42 peptide induced neurotoxicity in neuronal cell culture; assay type: cell-based; settings: for inhibition of Aβ1-42 peptide induced neurotoxicity: 1:10 and 1:20; for amyloid plaque inhibition activity with protected termini: N- or C-terminal protected or both protected, data not shown; for reduction of Aβ1-42 neurotoxicity: added before Aβ1-42 peptides were allowed to polymerize
Protocol: These peptides were tested in cell toxicity assays for their ability to prevent cell death (i.e., for example, by apoptotic mechanisms) induced by the Aβ1-42 peptide (SEQ ID NO:157).
as §2
(See FIG. 11A). […] (See FIG. 11B).

Aβ1-42 peptide [7] = biological target: T2, Aβ1-42 peptide; settings: Soto et al. 1996, 1998; cited from earlier work
[8] = 24 hours of polymerization / 24 hour incubation, FIG. 10A, 10B

T2 sequence (P05067 672-713): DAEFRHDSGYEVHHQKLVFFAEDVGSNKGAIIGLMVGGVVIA
Chain of Preformed amyloid fibrils comprising Aβ1-42 peptides (P05067 672-713): as above
Chain of Aβ1-42 protein (SEQ ID NO: 157) (P05067 672-713): as above
Chain of Aβ1-42 peptides (P05067 672-713): as above

## H-RGTFEGKF-NH2 [SEQ ID NO: 1]
Aβ1-42 peptides
  fibrils in electron microscopic images: no detectable fibrils
[1]; pH 7, over a two week period or longer
  gel formation of Aβ1-42 suspensions: did not form gel compositions
[1]; suspensions prepared at pH 7
  time until Aβ1-42 suspensions became clear after addition: less than 5 seconds
GpA70-86 fibrils; 1:1 molar ratio
  glycophorin A transmembrane peptide fibril formation: can be blocked
GpA70-86 fibrils
  ability to inhibit amyloid fibril formation: most effective
GpA70-86 fibrils; equimolar amount of inhibitor, FIG. 4D
  NMR cross peak between Met81 and Gly79 of GpA70-86 fibrils: absent
Aβ1-42 peptide [2]; FIG. 6, FIG. 7
  inhibition of Aβ1-42 fibrillization / amyloid fibril polymerization (words): inhibits amyloid fibril polymerization in a time and dose-dependent manner
Aβ1-42 peptide [2]; FIG. 6, FIG. 7, listed as SEQ ID NO:1
  inhibition of Aβ1-42 fibrillization / amyloid fibril polymerization (words): inhibits fibrillization
[3]
  depolymerization of pre-existing Aβ1-42 fibrils (words): depolymerizes pre-existing amyloid fibrils
[3]; listed as SEQ ID NO:1
  depolymerization of pre-existing Aβ1-42 fibrils (words): depolymerizes Aβ1-42 fibrils
[3]; after Day 4
  depolymerization rate and polymerization rate: apparently reaches equilibrium
[3]; first four incubation days
  depolymerization rate: apparent linear depolymerization rate
[4]; 10X
  viability at 48 h: 91.7 ± 5.6%
[4]; 20X
  viability at 48 h: 90.5 ± 6.4%
[5]
  toxicity of peptide by itself to neuronal cell culture: not toxic by themselves
[5]; listed as I1
  toxicity of peptide by itself to neuronal cell culture: not present
[6]; [8]
  inhibition of Aβ1-42 peptide induced neurotoxicity: Neither SEQ ID NO: 1 or SEQ ID NO: 160 reduced neurotoxicity
[6]; 24 hours of polymerization / 24 hour incubation, FIG. 10A, 10B, listed as SEQ ID NO:1
  inhibition of Aβ1-42 peptide induced neurotoxicity: does not inhibit
[6]; 48 hours of polymerization / 48 hour incubation, FIG. 10C, 10D
  inhibition of Aβ1-42 peptide induced neurotoxicity: dose-dependently inhibited neurotoxicity
[6]; 48 hours of polymerization / 48 hour incubation, FIG. 10C, 10D, listed as SEQ ID NO:1
  inhibition of Aβ1-42 peptide induced neurotoxicity: does inhibit
[6]
  amyloid plaque inhibition activity with protected termini: retain amyloid plaque inhibition activity
  reduction of Aβ1-42 neurotoxicity: Neither SEQ ID NO: 1 or SEQ ID NO: 160 reduced neurotoxicity

## RATFEAKF-NH2 [SEQ ID NO: 19]
GpA70-86 fibrils
  ability to inhibit amyloid fibril formation: most effective
[6]
  amyloid plaque inhibition activity with protected termini: retain amyloid plaque inhibition activity

## H-LPFFD-NH2 [SEQ ID NO: 160, NH2-LPFFD-NH2, reference compound]
[4]; 10X
  viability at 48 h: 97.9 ± 4.2%
[4]; 20X
  viability at 48 h: 97.8 ± 6.6%
[5]
  toxicity of peptide by itself to neuronal cell culture: not toxic by themselves
[5]; listed as I6
  toxicity of peptide by itself to neuronal cell culture: not present
[6]; [8]
  inhibition of Aβ1-42 peptide induced neurotoxicity: Neither SEQ ID NO: 1 or SEQ ID NO: 160 reduced neurotoxicity
[6]; 24 hours of polymerization / 24 hour incubation, FIG. 10A, 10B, listed as SEQ ID NO:160
  inhibition of Aβ1-42 peptide induced neurotoxicity: does not inhibit
[6]; 48 hours of polymerization / 48 hour incubation, FIG. 10C, 10D, listed as SEQ ID NO:160
  inhibition of Aβ1-42 peptide induced neurotoxicity: does not inhibit
[6]
  reduction of Aβ1-42 neurotoxicity: Neither SEQ ID NO: 1 or SEQ ID NO: 160 reduced neurotoxicity
Aβ1-42 peptide [7]
  reported inhibitor activity (literature): effective inhibitor
